Test results reported in paper PMC11513923, “Discovery of ZLC491 as a Potent, Selective, and Orally Bioavailable CDK12/13 PROTAC Degrader” (Journal of Medicinal Chemistry, 2024).

Columns and labels:
CDK13 = biological target: T1, CDK13 (Homo sapiens, UniProt Q14004); experiment: CDK13 degradation in MDA-MB-231 cells by immunoblotting; assay type: cell-based;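 on Protein Degradation (%DMSO control, 0.3 μM) CDK13: percent of CDK13 protein degraded relative to DMSO control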
T1 construct: Immunoblotting of CDK12 and CDK13 in MDA-MB-231 cells treated with increasing concentrations of ZLC491 for 15 h; endogenous in cells; host or cells: MDA-MB-231
Outline: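 MDA-MB-231 cells treated with ZLC491 at increasing concentrations for 15 h (screening at 0.3 μM; time course at 1 μM); SDS lysates immunoblotted, band intensities normalised to α-tubulin. DC50 taken from percent remaining protein versus concentration; representative of three independent experiments.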

CCNK = experiment: Immunoblotting of CCNK in MDA-MB-231 cells; assay type: cell-based, human; conditions: MDA-MB-231, increasing concentrations, 15 h
Protocol: The global proteomic selectivity of ZLC491 was investigated by using the tandem mass tag (TMT) labeled mass-spectrometry. […] CDK13 was not detected in either degrader treatment groups or DMSO control groups, likely due to its insufficient cellular expression for mass spectrometry detection.
Generally, the tested cells were washed by ice-cold PBS buffer (Gibco) and lysed with an SDS lysis buffer (62.5 mM Tris, 2% w/v SDS, 10 glycerol, 50 mM DTT, 0.01% w/v bromophenol blue) on ice, after which the protein lysate samples were collected to 1.5 mL microcentrifuge tubes and treated with ultrasonic for 10 s, following with a 100 °C incubation for 10 min and a 4 °C centrifugation of 12000 rpm for 10 min. An equal amount of protein was loaded to 4–8% Bis-Tris gels and underwent an SDS-PAGE electrophoresis at 55V for 30 min and 95V for 90 min. Proteins on gels were then transferred to a polyvinylidene difluoride (PVDF) membrane (Bio-Rad) with a wet electro transfer system (Bio-Rad). The PVDF membrane was cut into bands and incubated in a blocking reagent (5% defatted milk powder dissolved in TBST) at room temperature for 1–2 h. Incubate membrane and primary antibody (at the appropriate dilution and diluent as recommended in the product webpage) at 4 °C for 12–14 h, followed with three times washes by TBST. […]

HCC38 cells = experiment: Cell proliferation assay (CCK-8); assay type: cell-based; conditions: Homo sapiens, HCC38, 120 h; 5 days
Protocol: (§1) (A) Transcription level of DDR genes in MDA-MB-231 cells determined by RT-qPCR upon the treatment with vehicle or ZLC491 at different doses for 12 h, ROR1 was used as a negative control; (B) immunoblotting of DDR proteins in MDA-MB-231 cells after the treatment of ZLC491 at different doses for 48 h; (C) cell antiproliferative activity of ZLC491 in multiple TNBC cells as well as several noncancerous cells. Cells were treated with the compound for 5 days; (D,E) antiproliferative potency of cisplatin or olaparib alone or combined with ZLC491 at different doses in MDA-MB-231 cells for 5 days. Data are plotted using the percentage of absorbance relative to DMSO controls. (F) IC50 values and combination index (CI) in drug combination assay. In this model, CI scores estimate the interaction between the two drugs. If CI < 1, the drugs have a synergistic effect and if CI > 1, the drugs have an antagonistic effect. CI = 1 means the drugs have an additive effect. ^aThe drug combination in the table refers to the starting concentration of the two combined drugs, that would both go through serial dilution when treating cells.
(§2) TNBC cell lines MDA-MB-231, MDA-MB-436 and HCC38, human embryonic kidney cell line HEK 293 and human embryonic lung cell line MRC-5 were purchased from American Type Culture Collection (ATCC). Human mammary epithelial cell line MCF 10A was obtained from Chinese Academy of Sciences National Collection of Authenticated Cell Cultures. MDA-MB-231 was maintained in Leibovitz’ s L-15 medium (Gibco) supplemented with 10% fetal bovine serum (FBS; Excell Bio) and 1% penicillin/streptomycin (P/S; Gibco) at 37 °C in a humidified chamber of 100% air atmosphere. MDA-MB-436 and HCC38 were developed in Dulbecco’s modified Eagle medium (DMEM; Gibco) and RPMI-1640 medium (Gibco), respectively, both supplemented with 10% FBS (Excell Bio) and 1% P/S (Gibco), using a 37 °C constant temperature incubator with 5% CO2. HEK 293 and MRC-5 were cultured in the same condition with Eagle’s minimum essential medium (EMEM; Wisent). MCF 10A was grown in Mammary Epithelial Cell Growth Medium BulletKit (Lonza) at 37 °C in a humidified chamber with 5% CO2.
(§3) Tested cells were plated in 96-well or 384-well plates and incubated at 37 °C with or without 5% CO2. After overnight incubation, serial dilutions of compounds were added to the plate. Cell proliferation was measured 5 days after compound treatment using Cell Counting Kit-8 (Selleck) according to the manufacturer’s instructions.

MDA-MB-436 cells = experiment: Cell proliferation assay (CCK-8); assay type: cell-based; conditions: Homo sapiens, MDA-MB-436, 120 h; 5 days
Protocol: as §1, §2, §3

MRC-5 cells = experiment: Cell proliferation assay (CCK-8); assay type: cell-based; conditions: Homo sapiens, MRC5, 120 h; 5 days, noncancerous embryonic lung cells
Protocol: as §1, §2, §3

T1 sequence (Q14004 whole entry): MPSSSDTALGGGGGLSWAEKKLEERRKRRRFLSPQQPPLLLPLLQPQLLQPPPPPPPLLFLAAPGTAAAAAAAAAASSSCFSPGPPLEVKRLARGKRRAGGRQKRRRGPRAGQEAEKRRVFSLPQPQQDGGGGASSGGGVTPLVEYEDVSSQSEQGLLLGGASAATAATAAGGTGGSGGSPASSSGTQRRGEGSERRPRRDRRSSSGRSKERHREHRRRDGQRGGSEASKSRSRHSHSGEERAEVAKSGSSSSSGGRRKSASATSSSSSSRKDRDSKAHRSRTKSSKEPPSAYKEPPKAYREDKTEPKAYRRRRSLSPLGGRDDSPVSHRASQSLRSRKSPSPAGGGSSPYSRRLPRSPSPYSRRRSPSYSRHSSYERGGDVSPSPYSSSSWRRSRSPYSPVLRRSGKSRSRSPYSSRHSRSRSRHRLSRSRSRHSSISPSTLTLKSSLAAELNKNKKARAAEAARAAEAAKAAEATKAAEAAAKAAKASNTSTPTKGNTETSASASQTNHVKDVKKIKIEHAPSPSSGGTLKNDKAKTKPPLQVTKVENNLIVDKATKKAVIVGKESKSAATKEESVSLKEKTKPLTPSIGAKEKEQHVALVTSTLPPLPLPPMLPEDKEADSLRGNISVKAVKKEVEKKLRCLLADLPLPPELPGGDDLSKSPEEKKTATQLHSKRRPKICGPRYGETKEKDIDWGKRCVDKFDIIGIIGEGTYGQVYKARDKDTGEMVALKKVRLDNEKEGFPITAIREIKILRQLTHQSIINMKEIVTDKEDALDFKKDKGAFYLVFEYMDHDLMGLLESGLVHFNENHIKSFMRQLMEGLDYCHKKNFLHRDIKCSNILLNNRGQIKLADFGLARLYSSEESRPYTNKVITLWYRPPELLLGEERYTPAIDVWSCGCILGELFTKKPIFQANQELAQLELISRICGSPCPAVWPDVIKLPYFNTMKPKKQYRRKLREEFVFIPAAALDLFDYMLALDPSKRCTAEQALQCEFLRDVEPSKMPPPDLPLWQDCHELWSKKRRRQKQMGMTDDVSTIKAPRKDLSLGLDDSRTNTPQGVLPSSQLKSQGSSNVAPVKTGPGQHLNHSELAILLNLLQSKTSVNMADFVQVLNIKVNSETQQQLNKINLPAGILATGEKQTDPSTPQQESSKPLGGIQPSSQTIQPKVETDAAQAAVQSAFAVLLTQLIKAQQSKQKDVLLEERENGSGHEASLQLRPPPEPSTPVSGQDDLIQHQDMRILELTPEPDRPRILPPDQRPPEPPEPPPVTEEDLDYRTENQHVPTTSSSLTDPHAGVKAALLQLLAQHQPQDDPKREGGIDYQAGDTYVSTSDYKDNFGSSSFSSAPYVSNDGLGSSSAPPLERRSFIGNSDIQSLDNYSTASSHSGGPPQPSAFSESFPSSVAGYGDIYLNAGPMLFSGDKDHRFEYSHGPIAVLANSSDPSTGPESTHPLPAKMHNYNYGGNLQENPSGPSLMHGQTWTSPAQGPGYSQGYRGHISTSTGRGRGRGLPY
T1 sequence (O75909 whole entry partner): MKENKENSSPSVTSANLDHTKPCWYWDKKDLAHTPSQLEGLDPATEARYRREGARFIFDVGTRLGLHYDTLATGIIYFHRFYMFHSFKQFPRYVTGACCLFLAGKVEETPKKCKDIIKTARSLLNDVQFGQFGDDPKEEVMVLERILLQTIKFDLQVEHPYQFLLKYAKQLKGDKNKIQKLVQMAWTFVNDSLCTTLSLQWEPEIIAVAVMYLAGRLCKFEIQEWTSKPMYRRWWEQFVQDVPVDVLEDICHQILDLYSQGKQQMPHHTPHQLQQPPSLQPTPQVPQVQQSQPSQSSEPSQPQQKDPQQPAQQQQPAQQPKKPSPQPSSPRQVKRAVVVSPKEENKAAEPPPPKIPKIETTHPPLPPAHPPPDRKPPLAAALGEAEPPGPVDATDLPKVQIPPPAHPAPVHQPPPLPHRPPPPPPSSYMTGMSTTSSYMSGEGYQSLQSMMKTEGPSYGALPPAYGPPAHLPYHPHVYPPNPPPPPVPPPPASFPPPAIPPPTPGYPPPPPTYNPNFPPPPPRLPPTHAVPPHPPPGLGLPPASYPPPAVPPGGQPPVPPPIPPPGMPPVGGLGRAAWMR

N#Cc1ccc(N[C@H]2CC[C@H](N(C(=O)NCc3ccccc3)c3ccc(N4CCN(C5CCN(c6cc7c(cc6F)C(=O)N(C6CCC(=O)NC6=O)C7=O)CC5)CC4)cc3)CC2)nc1 (some centres unmarked) [ZLC491, 3-Benzyl-1-((1r,4r)-4-((5-cyanopyridin-2-yl)amino)cyclohexyl)-1-(4-(4-(1-(2-(2,6-dioxopiperidin-3-yl)-6-fluoro-1,3-dioxoisoindolin-5-yl)piperidin-4-yl)piperazin-1-yl)phenyl)urea]
CDK13 degradation, immunoblotting of the proteomic samples (CDK13; 2 μM, 8 h, MDA-MB-231): significantly degraded
Protein Degradation (%DMSO control, 0.3 μM) CDK13 (CDK13; MDA-MB-231 cells, 0.3 μM, 15 h, immunoblotting, normalized against α-tubulin): 90%
DC50 (CDK13; MDA-MB-231 cells, 15 h): 28 nM
Degradation rates of CDK13 at 0.3 μM (CDK13; supplementary CSV, 0.3 μM): 90%
CCNK degradation by Western blotting (CCNK): dose-dependently degraded
IC50 (HCC38 cells): 190 nM
IC50 (MDA-MB-436 cells): 120 nM
IC50 (MRC-5 cells): > 10000 nM
